Test results as given in patent publication US9939451B2, “Biomarker for detecting white matter stroke, containing toll-like receptor 2, and medical use of toll-like receptor 2” (AJOU UNIVERSITY INDUSTRY—ACADEMIC COOPERATION FOUNDATION, priority 2013, dated 2018).

Assays:
[1] = tested on: primary OL (oligodendrocyte) cultures exposed to oxygen-glucose deprivation; test: LDH assay of OGD-induced OL death; type: cell-based, mouse
Procedure: Primary OL cultures were prepared from cortices of newborn C57BL/6 on postnatal day 0 (P0) to postnatal day 1 (P1), and/or TLR2 (−/−) mouse, according to the method reported in Journal of Visualized Experiment by O'Meara R. After 9-10 days in vitro, confluent mixed glial cultures were obtained. The mixed glial cultures were shaken at a temperature of about 37° C. for about 1 hour at a speed of about 200 rpm, so as to remove microglia. Afterwards, a second cycle of shaking was then performed at a temperature of about 37° C. for about 18 hours at a speed of about 250 rpm, so as to remove OLs from astrocyte monolayer. The cell suspensions obtained therefrom was plated on a bacterial grade Petri dish for about 1 hour to separate OLs from remaining microglia and astrocytes. […]
For quantification of OGD-induced OL death, LDH assay was performed using an assay kit (Takara Bio, Inc., Madison, Wis.) to measure LDH generated in a bathing medium in association with damaged OL at 24 hours after the onset of OGD challenge. The LDH level corresponding to typical cell death was determined in sister cultures exposed 1.5% Triton X-100 for 24 hours (complete cell death, CD). Baseline (BL) LDH levels were determined in a condition of only medium without OLs. Percentage of cell death in each experimental condition was calculated using a following formula. {% of OL death=(experimental value−BL)×100/(CD−BL)}

[2] = tested on: primary OL (oligodendrocyte) cultures exposed to oxygen-glucose deprivation; test: TUNEL staining of OGD-induced OL death; type: cell-based, mouse; settings: Pam3CSK4 1 μg/ml added after 2 hours OGD; FIG. 5
Procedure: Primary OL cultures were prepared from cortices of newborn C57BL/6 on postnatal day 0 (P0) to postnatal day 1 (P1), and/or TLR2 (−/−) mouse, according to the method reported in Journal of Visualized Experiment by O'Meara R. After 9-10 days in vitro, confluent mixed glial cultures were obtained. The mixed glial cultures were shaken at a temperature of about 37° C. for about 1 hour at a speed of about 200 rpm, so as to remove microglia. Afterwards, a second cycle of shaking was then performed at a temperature of about 37° C. for about 18 hours at a speed of about 250 rpm, so as to remove OLs from astrocyte monolayer. The cell suspensions obtained therefrom was plated on a bacterial grade Petri dish for about 1 hour to separate OLs from remaining microglia and astrocytes. Purified OLs were plated on a poly-D-lysine coated 12 well (1.5×10^5 cells/well) or 96 well (1.5×10^4 cells/well) or on a 9 mm coverslip (1.0×10^4 cells/coverslip).
For OGD challenge, the purified OLs were cultured for about 1 day in a serum-free differentiation medium, washed with PBS three times, and then, transferred to an anaerobic chamber (Forma Scientific, Marietta, Ohio). […] The cells were exposed to OGD for about 2 hours, and then, transferred to a normoxic chamber. […]

Substance: Pam3CSK4
- OGD-induced OL death (LDH release) ([1]; Pam3CSK4 1 μg/ml added after 2 hours OGD, LDH measured 24 hours after onset of OGD, FIG. 3): reduced the extent of OGD-induced OL death
- OGD-induced OL death (summary statement) ([1]; TLR2 agonist applied after OGD to OLs cultured from WT mouse, readout not given): substantially reduced OGD-induced OL death
- OGD-induced OL death (TUNEL staining) [2]: reduced the extent of OGD-induced OL death
